# Measurements reported in the supplement of paper PMC11451515.
# System: P12-Ichikawa
# Assay: cell viability relative to DMSO control; higher = less cytotoxic
# Conditions: 48 h
# Method in brief: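 Viability was expressed as a per-plate percentage of DMSO wells, with cell-free wells as background. Leukemia cells (NOMO1 or SEM at 500 cells/well, P12-Ichikawa at 1000 cells/well) were adapted for at least four passages in each medium and seeded in 1536-well plates (5 μl). Library compounds in DMSO were pin-dosed over an 11-point threefold series from 47 μM to 0.79 nM, and CellTiter-Glo One luminescence was read after 48 h at 37°C.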
# [1] = HPLM + 10% dialyzed FBS, 0.000781 µM
# [2] = HPLM + 10% dialyzed FBS, 0.00234 µM
# [3] = HPLM + 10% dialyzed FBS, 0.00702 µM
# [4] = HPLM + 10% dialyzed FBS, 0.0211 µM
# [5] = HPLM + 10% dialyzed FBS, 0.0632 µM
# [6] = HPLM + 10% dialyzed FBS, 0.19 µM
# [7] = HPLM + 10% dialyzed FBS, 0.569 µM
# [8] = HPLM + 10% dialyzed FBS, 1.71 µM
# [9] = HPLM + 10% dialyzed FBS, 5.12 µM
# [10] = HPLM + 10% dialyzed FBS, 15.4 µM
# [11] = HPLM + 10% dialyzed FBS, 46.1 µM
# [12] = RPMI 5 mM glucose + 10% FBS, 0.000781 µM
# [13] = RPMI 5 mM glucose + 10% FBS, 0.00234 µM
# [14] = RPMI 5 mM glucose + 10% FBS, 0.00702 µM
# [15] = RPMI 5 mM glucose + 10% FBS, 0.0211 µM
# [16] = RPMI 5 mM glucose + 10% FBS, 0.0632 µM
# [17] = RPMI 5 mM glucose + 10% FBS, 0.19 µM
# [18] = RPMI 5 mM glucose + 10% FBS, 0.569 µM
# [19] = RPMI 5 mM glucose + 10% FBS, 1.71 µM
# [20] = RPMI 5 mM glucose + 10% FBS, 5.12 µM
# [21] = RPMI 5 mM glucose + 10% FBS, 15.4 µM
# [22] = RPMI 5 mM glucose + 10% FBS, 46.1 µM
# [23] = RPMI 5 mM glucose + 10% dialyzed FBS, 0.000781 µM
# [24] = RPMI 5 mM glucose + 10% dialyzed FBS, 0.00234 µM
# [25] = RPMI 5 mM glucose + 10% dialyzed FBS, 0.00702 µM
# [26] = RPMI 5 mM glucose + 10% dialyzed FBS, 0.0211 µM
# [27] = RPMI 5 mM glucose + 10% dialyzed FBS, 0.0632 µM
# [28] = RPMI 5 mM glucose + 10% dialyzed FBS, 0.19 µM
# [29] = RPMI 5 mM glucose + 10% dialyzed FBS, 0.569 µM
# [30] = RPMI 5 mM glucose + 10% dialyzed FBS, 1.71 µM
# [31] = RPMI 5 mM glucose + 10% dialyzed FBS, 5.12 µM
# [32] = RPMI 5 mM glucose + 10% dialyzed FBS, 15.4 µM
# [33] = RPMI 5 mM glucose + 10% dialyzed FBS, 46.1 µM
smiles,measurement,setting,value
CC(C)(C)[C@]1(O)C[C@@H]2OC(=O)C[C@@]23C(=O)O[C@@H]2OC(=O)[C@H](O)C213 (some centres not stated),cell viability,[1],121%
same,cell viability,[2],127%
same,cell viability,[3],121%
same,cell viability,[4],126%
same,cell viability,[5],118%
same,cell viability,[6],112%
same,cell viability,[7],118%
same,cell viability,[8],108%
same,cell viability,[9],109%
same,cell viability,[10],114%
same,cell viability,[11],106%
same,cell viability,[12],128%
same,cell viability,[13],121%
same,cell viability,[14],113%
same,cell viability,[15],136%
same,cell viability,[16],118%
same,cell viability,[17],122%
same,cell viability,[18],118%
same,cell viability,[19],105%
same,cell viability,[20],116%
same,cell viability,[21],108%
same,cell viability,[22],113%
same,cell viability,[23],120%
same,cell viability,[24],129%
same,cell viability,[25],124%
same,cell viability,[26],130%
same,cell viability,[27],119%
same,cell viability,[28],116%
same,cell viability,[29],119%
same,cell viability,[30],105%
same,cell viability,[31],118%
same,cell viability,[32],116%
same,cell viability,[33],112%
CC(C)[C@H](C(=O)Nc1ccc(C(=O)NO)cc1)c1ccccc1,cell viability,[1],117%
same,cell viability,[2],120%
same,cell viability,[3],121%
same,cell viability,[4],129%
same,cell viability,[5],125%
same,cell viability,[6],125%
same,cell viability,[7],118%
same,cell viability,[8],87.9%
same,cell viability,[9],7.68%
same,cell viability,[10],5.55%
same,cell viability,[11],6.05%
Nc1cc(N2CCCCC2)nc(N)[n+]1[O-],cell viability,[1],114%
same,cell viability,[2],125%
same,cell viability,[3],122%
same,cell viability,[4],118%
same,cell viability,[5],120%
same,cell viability,[6],127%
same,cell viability,[7],131%
same,cell viability,[8],125%
same,cell viability,[9],122%
same,cell viability,[10],119%
same,cell viability,[11],122%
same,cell viability,[12],125%
same,cell viability,[13],128%
same,cell viability,[14],121%
same,cell viability,[15],134%
same,cell viability,[16],127%
same,cell viability,[17],123%
same,cell viability,[18],131%
same,cell viability,[19],127%
same,cell viability,[20],131%
same,cell viability,[21],134%
same,cell viability,[22],127%
same,cell viability,[23],113%
same,cell viability,[24],124%
same,cell viability,[25],111%
same,cell viability,[26],125%
same,cell viability,[27],121%
same,cell viability,[28],114%
same,cell viability,[29],125%
same,cell viability,[30],129%
same,cell viability,[31],121%
same,cell viability,[32],113%
same,cell viability,[33],117%
